Results published in US6827949B2, “Wood preservative” (Takeda Chemical Industries, Ltd., priority 2001, dated 2004).

How the values were obtained:
[1] = system: worker ants of Coptotermes formosanus; assay: Damage (ingestion) inhibition test (filter paper); assay type: in vivo; parameters: key: 0: No damage; 1: Damage of ½ or less; 2: Damage of ½ to ¾; 3: Damage of ¾ with some remainder; 4: Complete damage; conditions: filter paper immersed in 1 w/w % solution in acetone (hispidin in methanol); 100 worker ants; Control 4
Protocol: A 1 w/w % solution of each compound shown in Table 7 in acetone (except for hispidin which was prepared as a 1 w/w % solution in methanol) was prepared.
In this solution, a No.2 filter paper of 1×1 cm in size was immersed, taken out and then air-dried. It was then placed in a 11-K bottle in which 100 worker ants of Coptotermes formosanus had been kept, and the ingestion behavior was observed. Hispidin employed was a reagent produced by Calbiochem.

[2] = system: Fomitopsis palustris; assay: Wood-decaying fungal growth inhibition test; assay type: cell-based; parameters: key: 0: No growth; 1: Fungal growth; conditions: filter paper immersed in 5 w/w % acetone solution, placed on Fomitopsis palustris on PDA medium; Control 1
Source text: A No.2 filter paper of 1×1 cm in size was immersed in the solution, taken out and then air-dried. The filter was then placed on a Fomitopsis palustris which had been cultivated on a PDA medium in a petri dish and observed conditions of fungal growth for 8 weeks.

[3] = system: spore mixture of Aspergillus niger, Penicillin funculosum, Aureobasidium pullulans and Gliocladium virens; assay: Woodstaining fungal growth inhibition test; assay type: cell-based; parameters: key: 0: No fungal growth; 1: Fungal growth; conditions: filter paper immersed in 5 w/w % acetone solution, sprayed with spore mixture, 2% agar; Control 1
Source text: In the solution, a No.2 filter paper of 1×1 cm in size was immersed, taken out and then air-dried.
Aureobasidium pullulans and […]

Row | Structure (SMILES) | Damage degree after 1 week [1] | Fungal growth after 8 weeks [2] | Fungal growth after 3 days [3]
1 | COC1=CC(=O)O[C@@H](/C=C/c2ccc3c(c2)OCO3)C1 [Methysticin] | 0 | 0 | 0
2 | COC1=CC(=O)O[C@@H](/C=C/c2ccccc2)C1 [Kawain] | 1 | 0 | 0
3 | COC1=CC(=O)OC(CCc2ccc(OC)cc2)C1 (stereo not shown) [5,6,7,8-Tetrahydroyangonin] | 0 | 0 | 0
4 | O=c1cc(O)cc(/C=C/c2ccc(O)c(O)c2)o1 [Hispidin, reference compound] | 1 |  | 
5 | COc1ccc(/C=C/c2cc(OC)cc(=O)o2)cc1 [Yangonin] | 1 | 0 | 0
6 | COC1=CC(=O)O[C@@H](CCc2ccccc2)C1 [7,8-Dihydrokawain] | 0 | 0 | 0
7 | COC1=CC(=O)O[C@@H](CCc2ccc3c(c2)OCO3)C1 [7,8-Dihydromethysticin] | 0 | 0 | 0
8 | COc1cc(/C=C/c2ccccc2)oc(=O)c1 [5,6-Dehydrokawain] | 1 | 0 | 0
